pIC50: −log10 of the molar value.
Legend:
[1] = biological target: T1, human recombinant ROCK II (Homo sapiens, UniProt O75116); experiment: Determination of Rho kinase inhibition (ROCK II, Caliper peptide phosphorylation assay); format: biochemical; conditions: respective form (salt or free base) as obtained in the examples, 60 min at 32° C.
T1 construct: recombinant human ROCK-II residues 11-552; His6 (N); purchased Millipore GmbH, Schwalbach, Germany
In short: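 Enzyme: active N-terminal His6-tagged recombinant human ROCK-II, residues 11-552. Substrate: a fluorescein-labelled peptide, with ATP. IC50 values were determined.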

recombinant human PKA = biological target: T2, recombinant human PKA (Homo sapiens, UniProt P17612); experiment: Determination of Protein Kinase A inhibition (selectivity); format: biochemical; conditions: from IC50 values
T2 construct: recombinant human PKA (residues 1-351, N-terminal His-tag); His-tag (N); purchased Invitrogen, Karlsruhe, Germany
In short: (§1)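 Full-length His-tagged PKG1-beta and His-tagged PKA (residues 1-351) assayed in Tris-HCl pH 7.4 with fluorescein-labelled peptide and ATP (diluted to 3 μM and 120 μM before mixing), 60 min at 32° C. EDTA-stopped; substrate phosphorylation detected by Caliper mobility-shift separation, giving IC50 values.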

[2] = biological target: T3, recombinant human PKG1-beta (Homo sapiens, UniProt Q13976); experiment: Determination of Protein Kinase G inhibition (selectivity); format: biochemical; conditions: from IC50 values
T3 construct: PKG1-beta (full-length, with N-terminal His-tag); His-tag (N); purchased Millipore GmbH, Schwalbach, Germany
T3 sequence (Q13976 1-686 isoform Q13976-2): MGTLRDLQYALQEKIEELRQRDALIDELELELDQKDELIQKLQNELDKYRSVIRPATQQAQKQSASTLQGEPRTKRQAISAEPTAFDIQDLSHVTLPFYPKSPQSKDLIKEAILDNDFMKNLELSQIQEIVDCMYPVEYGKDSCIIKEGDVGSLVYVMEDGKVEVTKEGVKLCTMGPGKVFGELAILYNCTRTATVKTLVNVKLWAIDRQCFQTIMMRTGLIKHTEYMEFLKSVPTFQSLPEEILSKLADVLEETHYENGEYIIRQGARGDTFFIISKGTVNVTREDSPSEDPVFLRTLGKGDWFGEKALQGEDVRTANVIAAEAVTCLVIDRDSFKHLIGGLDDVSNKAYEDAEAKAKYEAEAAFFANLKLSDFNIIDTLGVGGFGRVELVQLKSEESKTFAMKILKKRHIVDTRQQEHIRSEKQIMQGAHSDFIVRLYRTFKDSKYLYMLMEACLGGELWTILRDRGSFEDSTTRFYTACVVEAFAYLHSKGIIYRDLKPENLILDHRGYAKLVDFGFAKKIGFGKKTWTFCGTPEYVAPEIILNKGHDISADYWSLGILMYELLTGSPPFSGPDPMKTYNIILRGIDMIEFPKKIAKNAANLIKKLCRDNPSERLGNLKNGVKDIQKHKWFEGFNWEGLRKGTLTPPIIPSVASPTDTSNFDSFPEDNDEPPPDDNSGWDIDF
In short: as §1

Protein Kinase G = conditions: Rho kinase inhibitor, background statement; cited from earlier work

T1 sequence (O75116 11-552): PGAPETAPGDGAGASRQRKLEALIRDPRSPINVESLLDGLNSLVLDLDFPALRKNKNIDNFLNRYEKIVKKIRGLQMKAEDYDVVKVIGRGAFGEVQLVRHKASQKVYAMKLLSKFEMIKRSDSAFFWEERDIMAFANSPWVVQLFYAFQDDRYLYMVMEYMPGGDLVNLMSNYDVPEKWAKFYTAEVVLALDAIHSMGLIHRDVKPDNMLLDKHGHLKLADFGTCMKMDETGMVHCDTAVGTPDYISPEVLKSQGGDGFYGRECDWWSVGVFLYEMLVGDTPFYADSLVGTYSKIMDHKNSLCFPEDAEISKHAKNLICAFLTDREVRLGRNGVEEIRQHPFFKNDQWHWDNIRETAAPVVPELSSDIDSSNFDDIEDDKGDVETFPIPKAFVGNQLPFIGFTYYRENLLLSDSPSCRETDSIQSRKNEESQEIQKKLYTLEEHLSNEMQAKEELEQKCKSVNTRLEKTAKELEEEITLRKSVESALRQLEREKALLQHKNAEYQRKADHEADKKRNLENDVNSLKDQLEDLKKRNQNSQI

Row | pIC50 [1] | Selectivity against PKA (recombinant human PKA) | Selectivity against PKG [2] | Structure (SMILES) | selectivity against Protein Kinase G (Protein Kinase G)
1 | 7.00 to 8.00 | >300 fold | >10 fold | CCC(N)[C@]1(CC)CC[C@H](Oc2cc3cc[nH]c(=O)c3cc2F)CC1 (stereo partly drawn) [Example 50, cis-6-[4-(1-Amino-propyl)-4-ethyl-cyclohexyloxy]-7-fluoro-2H-isoquinolin-1-one] | –
2 | 6.00 to 7.00 | >100 fold | >10 fold | CCC(N)[C@]1(CC)CC[C@H](Oc2cc3cc[nH]c(=O)c3cc2C)CC1 (stereo partly drawn) [Example 52, cis-6-[4-(1-Amino-propyl)-4-ethyl-cyclohexyloxy]-7-methyl-2H-isoquinolin-1-one] | –
3 | 6.00 to 7.00 | >10 fold | >10 fold | CCC(N)[C@]1(CC)CC[C@H](Oc2c(C)cc3c(=O)[nH]ccc3c2C)CC1 (stereo partly drawn) [Example 54, cis-6-[4-(1-Amino-propyl)-4-ethyl-cyclohexyloxy]-5,7-dimethyl-2H-isoquinolin-1-one] | –
4 | 7.00 to 8.00 | >100 fold | >100 fold | CCC(N)[C@]1(OC)CC[C@@H](Oc2cc3cc[nH]c(=O)c3cc2Cl)CC1 (stereo partly drawn) [Example 59, trans-6-[4-(1-Amino-propyl)-4-methoxy-cyclohexyloxy]-7-chloro-2H-isoquinolin-1-one] | –
5 | 7.00 to 8.00 | >100 fold | >300 fold | C[C@]1(C(N)c2ccccc2)CC[C@@H](Oc2cc3cc[nH]c(=O)c3cc2Cl)CC1 (stereo partly drawn) [Example 61, cis-6-[4-(Amino-phenyl-methyl)-4-methyl-cyclohexyloxy]-7-chloro-2H-isoquinolin-1-one] | –
6 | ≥ 8.00 | >1000 fold | >100 fold | CCCC(N)[C@]1(C)CC[C@H](Oc2cc3cc[nH]c(=O)c3cc2Cl)CC1 (stereo partly drawn) [Example 62, cis-6-[4-(1-Amino-butyl)-4-methyl-cyclohexyloxy]-7-chloro-2H-isoquinolin-1-one] | –
7 | ≥ 8.00 | >1000 fold | >300 fold | CC(C)CC(N)[C@]1(CC2CC2)CC[C@H](Oc2cc3cc[nH]c(=O)c3cc2Cl)CC1 (stereo partly drawn) [Example 64, cis-6-[4-(1-Amino-3-methyl-butyl)-4-cyclopropyl-methyl-cyclohexyloxy]-7-chloro-2H-isoquinolin-1-one] | –
8 | 7.00 to 8.00 | >300 fold | >100 fold | CCC(N)[C@]1(C2CCCCC2)CC[C@H](Oc2cc3cc[nH]c(=O)c3cc2Cl)CC1 (stereo partly shown) [Example 65] | –
9 | ≥ 8.00 | >1000 fold | >300 fold | NC(C1CC1)[C@]1(CC2CCOCC2)CC[C@H](Oc2cc3cc[nH]c(=O)c3cc2Cl)CC1 (stereo partly drawn) [Example 68, cis-6-[4-(Amino-cyclopropyl-methyl)-4-(tetrahydro-pyran-4-ylmethyl)-cyclohexyloxy]-7-chloro-2H-isoquinolin-1-one] | –
10 | ≥ 8.00 | >1000 fold | >300 fold | C[C@]1(C(N)C2CC2)CC[C@@H](Oc2cc3cc[nH]c(=O)c3cc2Cl)CC1 (stereo partly drawn) [Example 69, cis-6-[4-(Amino-cyclopropyl-methyl)-4-methyl-cyclohexyloxy]-7-chloro-2H-isoquinolin-1-one] | –
11 | ≥ 8.00 | >1000 fold | >1000 fold | CC[C@]1(C(N)C2CC2)CC[C@@H](Oc2cc3cc[nH]c(=O)c3cc2Cl)CC1 (stereo partly drawn) [Example 70, cis-6-[4-(Amino-cyclopropyl-methyl)-4-ethyl-cyclohexyloxy]-7-chloro-2H-isoquinolin-1-one] | –
12 | 7.00 to 8.00 | >300 fold | >100 fold | CC(N)[C@]1(C2CC2)CC[C@H](Oc2cc3cc[nH]c(=O)c3cc2Cl)CC1 (stereo partly drawn) [Example 72, cis-6-[4-(1-Amino-ethyl)-4-cyclopropyl-cyclohexyloxy]-7-chloro-2H-isoquinolin-1-one] | –
13 | ≥ 8.00 | >1000 fold | >300 fold | NC(C1CC1)[C@]1(CCCC(F)(F)F)CC[C@H](Oc2cc3cc[nH]c(=O)c3cc2Cl)CC1 (stereo partly drawn) [Example 73, cis-6-[4-(Amino-cyclopropyl-methyl)-4-(4,4,4-trifluoro-butyl)-cyclohexyloxy]-7-chloro-2H-isoquinolin-1-one] | –
14 | ≥ 8.00 | >1000 fold | >1000 fold | CCC(N)[C@]1(C2CC2)CC[C@H](Oc2cc3cc[nH]c(=O)c3cc2Cl)CC1 (stereo partly drawn) [Example 74, cis-6-[4-(1-Amino-propyl)-4-cyclopropyl-cyclohexyloxy]-7-chloro-2H-isoquinolin-1-one] | –
15 | ≥ 8.00 | >1000 fold | >1000 fold | NC(C1CC1)[C@]1(C2CC2)CC[C@H](Oc2cc3cc[nH]c(=O)c3cc2Cl)CC1 (stereo partly drawn) [Example 75, cis-6-[4-(Amino-cyclopropyl-methyl)-4-cyclopropyl-cyclohexyloxy]-7-chloro-2H-isoquinolin-1-one] | –
16 | ≥ 8.00 | >1000 fold | >1000 fold | CCC(N)[C@]1(C2CCSCC2)CC[C@H](Oc2cc3cc[nH]c(=O)c3cc2Cl)CC1 (stereo partly drawn) [Example 76, cis-6-[4-(1-Amino-propyl)-4-(tetrahydro-thiopyran-4-yl)-cyclohexyloxy]-7-chloro-2H-isoquinolin-1-one] | –
17 | ≥ 8.00 | >1000 fold | >300 fold | CCC[C@]1(C(C)N)CC[C@@H](Oc2cc3cc[nH]c(=O)c3cc2Cl)CC1 (stereo partly drawn) [Example 77, cis-6-[4-(1-Amino-ethyl)-4-propyl-cyclohexyloxy]-7-chloro-2H-isoquinolin-1-one] | –
18 | 7.00 to 8.00 | >300 fold | >100 fold | CC[C@]1(C(C)N)CC[C@@H](Oc2cc3cc[nH]c(=O)c3cc2F)CC1 (stereo partly drawn) [Example 78, cis-6-[4-(1-Amino-ethyl)-4-ethyl-cyclohexyloxy]-7-fluoro-2H-isoquinolin-1-one] | –
19 | ≥ 8.00 | >1000 fold | >300 fold | CC[C@]1(C(N)CF)CC[C@@H](Oc2cc3cc[nH]c(=O)c3cc2Cl)CC1 (stereo partly drawn) [Example 95, cis-6-[4-(1-Amino-2-fluoro-ethyl)-4-ethyl-cyclohexyloxy]-7-chloro-2H-isoquinolin-1-one] | –
20 | 7.00 to 8.00 | >300 fold | >100 fold | CC[C@]1(C(N)CF)CC[C@H](Oc2cc3cc[nH]c(=O)c3cc2Cl)CC1 (stereo partly drawn) [Example 96, trans-6-[4-(1-Amino-2-fluoro-ethyl)-4-ethyl-cyclohexyloxy]-7-chloro-2H-isoquinolin-1-one] | –
21 | – | – | – | C[C@@H](N)[C@H]1CC[C@H](C(=O)Nc2ccncc2)CC1 [Example Y-27632] | 20 fold

Row | Structure (SMILES) | pIC50 [1] | Selectivity against PKA (recombinant human PKA) | Selectivity against PKG [2] | selectivity against Protein Kinase G (Protein Kinase G)
22 | CCC(N)[C@]1(OC)CC[C@H](Oc2cc3cc[nH]c(=O)c3cc2Cl)CC1 (stereo partly drawn) [Example 58, cis-6-[4-(1-Amino-propyl)-4-methoxy-cyclohexyloxy]-7-chloro-2H-isoquinolin-1-one] | 7.00 to 8.00 | >300 fold | >300 fold | –
23 | CCC(N)[C@]1(C(C)C)CC[C@H](Oc2cc3c(F)c[nH]c(=O)c3cc2Cl)CC1 (stereo partly drawn) [Example 90, cis-6-[4-(1-Amino-propyl)-4-isopropyl-cyclohexyloxy]-7-chloro-4-fluoro-2H-isoquinolin-1-one] | 7.00 to 8.00 | >300 fold | >100 fold | –
24 | CCC(N)[C@]1(C2CCS(=O)(=O)CC2)CC[C@H](Oc2cc3cc[nH]c(=O)c3cc2Cl)CC1 (stereo partly drawn) [Example 99, cis-6-[4-(1-amino-propyl)-4-(1,1-dioxo-tetrahydrothiopyran-4-yl)-cyclohexyloxy]-7-chloro-2H-isoquinolin-1-one] | ≥ 8.00 | >1000 fold | >300 fold | –
